Results from patent US12054482B2, “TLR8 agonist” (CHIA TAI TIANQING PHARMACEUTICAL GROUP CO., LTD., priority 2018, dated 2024).
Structures can show the parent of a compound that is named as a salt. Where two headings read alike, the source gives them in different places.

Tested on: human peripheral blood mononuclear cells (hPBMCs)
Test: Cytokine induction in human peripheral blood mononuclear cells
Format: cell-based
Settings: PBMC, hPBMC, 24 hours
Description: Experimental Example 2: Experimental Procedure for Peripheral Blood Mononuclear Cell
TLR8 is a receptor for the innate immune system to sense exogenous pathogens, and can recognize exogenous viral single-stranded RNA and cause the release of a series of cytokines such as TNF-α, IL-12, IFN-γ to elicit an antiviral immune response; TLR7 is another receptor for the innate immune system to sense exogenous pathogens and, when activated, produces primarily such antiviral cytokines as IFN-α. In this experiment, a potential compound of TLR8 agonist was used to stimulate human peripheral blood mononuclear cells (hPBMCs), and the levels of TNF-α, IL-12p40, IFN-γ and IFN-α above were measured to reflect the activation of the compound on TLR8 receptor and its selectivity for TLR8/TLR7.
The experimental procedures are as follows: • 1. Fresh blood of healthy volunteers was collected, and anticoagulated with an EDTA-K2 anticoagulation tube (catalog No. BD-8516542); • 2. hPBMC cells in the middle cloud-like layer were separated after Ficoll density gradient centrifugation, and washed twice with RPMI1640 (source: Gibco, catalog No. 224400-089) containing 10% serum, and the culture medium was resuspended to 10 mL. After the cells were counted with Vi-cell cell counter, the concentration of cell suspension was adjusted to 2×10^6/mL; • 3. The compound was dissolved in DMSO to 100 mM, and diluted to 50 mM and 2 mM with DMSO, which were served as initial concentrations. Then the solutions were each diluted sequentially in a 3-fold gradient (sample at a previous concentration (5 μL)+DMSO (10 μL)) to obtain 8 gradients. The resulting solutions were respectively subjected to 500-fold dilution with the culture medium to prepare the working solutions of the compound; • 4. 100 μL of hPBMC suspension and 100 μL of compound working solution were added to each well of a U-bottom 96-well plate, with the final concentrations being 2000 nM, 666.7 nM, 222.2 nM, 74.1 nM, 24.7 nM, 8.2 nM, 2.7 nM and 0.9 nM respectively, and incubated for 24 hours. Then the supernatants were collected and cryopreserved at −20° C. for the detection of TNF-α, IFN-γ and IL-12p40 cytokines. The other group of compound samples, with the final concentrations being 50 μM, 16.7 μM, 5.6 μM, 1.9 μM, 0.6 μM, 0.2 μM, 0.1 μM and 0.02 μM respectively, were incubated for 24 hours. […] IL-12p40, TNF-α and IFN-γ in the supernatant were detected by flow cytometric bead array (CBA); IFN-α in the cell supernatant was detected by enzyme-linked immuno sorbent assay (ELISA). • 6. Data analysis: compound activity: EC50 values (half maximal effect concentration) were analyzed using a GraphPad Prism software and the dose-response curves of the compound were fitted to calculate EC50 values for the compound.

CCCC[C@](C)(Cc1ncn[nH]1)Nc1nc(N)nc2cnccc12 [Hydrochloride of Example 1]
EC50 (CBA, TLR8 pathway cytokine, read-out: IFN-γ EC50): 29 nM
EC50 (CBA, TLR8 pathway cytokine, read-out: IL-12p40 EC50): 26 nM
EC50 (CBA, TLR8 pathway cytokine, read-out: TNF-α EC50): 105 nM
EC50 (ELISA, TLR7 pathway cytokine, read-out: IFN-α EC50): 2800 nM
